Data as given in US12606528B2, “Methods and materials for inhibiting NF-kB activity” (University of Pittsburgh - Of the Commonwealth System of …, priority 2019, dated 2026).
Read-outs that look alike come from different tables or passages of the source.

Key:
NF-κB = NF-κB assay: THP1-NF-κB-LUC cells, LPS-stimulated secreted luciferase; type: cell-based; conditions: THP1-NF-κB-LUC cells, read-out: IC50 (NF-κB assay)
Procedure, shortened: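 THP1-NF-κB-LUC cells (25k/well) were pretreated with compounds for 2 h, then stimulated with LPS (10 ng/mL) for 18 h. Secreted luciferase was measured and normalized to vehicle, and IC50 was fitted from the concentration series.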

TNF release = assay: TNF assay: TNF release from LPS-stimulated human PBMCs (TNF ELISA); type: cell-based; conditions: PBMC, read-out: IC50 (TNF assay)
Procedure, shortened: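 TNF ELISA on supernatants read-out; cells were 10k human PBMCs/well given LPS at 10 ng/mL for 18 h after a 2 h compound pre-incubation across a concentration series, with IC50 derived for suppression of TNF secretion.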

[1] = LPS-stimulated human PBMCs, TNF ELISA
[2] = compounds 2 hours before LPS (10 ng/mL) for 18 hours, secreted luciferase
[3] = human PBMCs, compounds 2 hours before LPS (10 ng/ml) for 18 hours, supernatant TNF ELISA

Row | Compound | IC50 (NF-κB; LPS-stimulated) [µM] | IC50 (TNF release; [1]) [µM] | IC50 (NF-κB; [2]) [µM] | IC50 (TNF release; [3]) [µM]
1 | CC(C)C[S+]([O-])c1oc(-c2cccc(F)c2)nc1S(=O)(=O)c1ccc(Cl)cc1 (centres unmarked) [BC19347] | < 0.1 | < 0.1 |  | 
2 | CC(C)CS(=O)(=O)c1oc(-c2cccc(F)c2)nc1S(=O)(=O)c1ccc(Cl)cc1 [BC19348] | < 0.1 | 0.1 to 1 |  | 
3 | O=S(=O)(c1ccc(Cl)cc1)c1nc(-c2cccc(F)c2)oc1[S+]([O-])CC1CC1 (centres unmarked) [BC19349] | 0.1 to 1 | < 0.1 |  | 
4 | O=S(=O)(CC1CC1)c1oc(-c2cccc(F)c2)nc1S(=O)(=O)c1ccc(Cl)cc1 [BC19350] | 1 to 10 | 1 to 10 |  | 
5 | COCC[S+]([O-])c1oc(-c2cccc(F)c2)nc1S(=O)(=O)c1ccc(Cl)cc1 (centres unmarked) [BC19351] | 0.1 to 1 | < 0.1 |  | 
6 | COCCS(=O)(=O)c1oc(-c2cccc(F)c2)nc1S(=O)(=O)c1ccc(Cl)cc1 [BC19352] | 0.1 to 1 | < 0.1 |  | 
7 | O=S(=O)(c1ccc(Cl)cc1)c1nc(-c2cccc(F)c2)oc1[S+]([O-])C1CCCCC1 (centres unmarked) [BC19353] | 0.1 to 1 | 0.1 to 1 |  | 
8 | CC1Oc2cc(S(=O)(=O)Nc3ccc(OC(F)(F)F)cc3)c(Cl)cc2NC1=O (centres unmarked) [BC19354] |  |  | < 0.1 | > 10
9 | CCOc1ccc(NS(=O)(=O)c2cc(Cl)cc3c2OC(C)C(=O)N3)cc1 (centres unmarked) [BC19355] |  |  | < 0.1 | > 10
10 | CC1Oc2cc(S(=O)(=O)NCc3ccc(F)cc3F)c(Br)cc2NC1=O (centres unmarked) [BC19356] |  |  | 1 to 10 | > 10
11 | CC1Oc2cc(S(=O)(=O)NCc3ccc(OC(F)(F)F)cc3)c(Br)cc2NC1=O (centres unmarked) [BC19357] |  |  | > 10 | > 10
12 | CC1Oc2cc(S(=O)(=O)NCc3ccc(C(F)(F)F)cc3)c(Br)cc2NC1=O (centres unmarked) [BC19358] |  |  | > 10 | > 10
13 | CC1Oc2cc(S(=O)(=O)NCCc3ccc(OC(F)(F)F)cc3)c(Br)cc2NC1=O (centres unmarked) [BC19359] |  |  | > 10 | > 10
14 | CC1Oc2cc(S(=O)(=O)NC3CCC(O)CC3)c(Br)cc2NC1=O (centres unmarked) [BC19360] |  |  | > 10 | > 10
15 | CC1Oc2cc(S(=O)(=O)NC3CCC(C(C)(C)C)CC3)c(Br)cc2NC1=O (centres unmarked) [BC19361] |  |  | > 10 | > 10
16 | CC1Oc2c(cc(Br)cc2S(=O)(=O)NCc2ccc(F)cc2F)NC1=O (centres unmarked) [BC19362] |  |  | 0.1 to 1 | > 10
17 | CC1Oc2c(cc(Br)cc2S(=O)(=O)NCc2ccc(OC(F)(F)F)cc2)NC1=O (centres unmarked) [BC19363] |  |  | < 0.1 | > 10

Row | Compound | IC50 (NF-κB; LPS-stimulated) [µM] | IC50 (TNF release; [1]) [µM] | IC50 (NF-κB; [2]) [µM] | IC50 (TNF release; [3]) [µM]
18 | CC1Oc2c(cc(Br)cc2S(=O)(=O)NCCc2ccc(OC(F)(F)F)cc2)NC1=O (centres unmarked) [BC19364] |  |  | > 10 | > 10
19 | CC1Oc2c(cc(Br)cc2S(=O)(=O)NCc2ccc(C(F)(F)F)cc2)NC1=O (centres unmarked) [BC19365] |  |  | 1 to 10 | > 10
20 | CC1Oc2c(cc(Br)cc2S(=O)(=O)NC2CCC(O)CC2)NC1=O (centres unmarked) [BC19366] |  |  | > 10 | > 10
21 | CC1Oc2c(cc(Br)cc2S(=O)(=O)NC2CCC(C(C)(C)C)CC2)NC1=O (centres unmarked) [BC19367] |  |  | > 10 | > 10
22 | CCC1Oc2cc(S(=O)(=O)NCc3ccc(F)cc3F)c(Br)cc2NC1=O (centres unmarked) [BC19368] |  |  | > 10 | > 10
23 | CCC1Oc2cc(S(=O)(=O)NCc3ccc(OC(F)(F)F)cc3)c(Br)cc2NC1=O (centres unmarked) [BC19369] |  |  | > 10 | > 10
24 | CCC1Oc2cc(S(=O)(=O)NCc3ccc(C(F)(F)F)cc3)c(Br)cc2NC1=O (centres unmarked) [BC19370] |  |  | > 10 | > 10
25 | CCC1Oc2cc(S(=O)(=O)Nc3ccc(C(F)(F)F)cc3Cl)c(Br)cc2NC1=O (centres unmarked) [BC19371] |  |  | 1 to 10 | > 10
26 | CCC1Oc2cc(S(=O)(=O)NC3CCC(O)CC3)c(Br)cc2NC1=O (centres unmarked) [BC19372] |  |  | > 10 | > 10
27 | CCC1Oc2cc(S(=O)(=O)NCCc3ccc(OC(F)(F)F)cc3)c(Br)cc2NC1=O (centres unmarked) [BC19373] |  |  | > 10 | > 10
28 | CCC1Oc2c(cc(Br)cc2S(=O)(=O)NCc2ccc(F)cc2F)NC1=O (centres unmarked) [BC19374] |  |  | < 0.1 | 1 to 10
29 | CCC1Oc2c(cc(Br)cc2S(=O)(=O)NCc2ccc(OC(F)(F)F)cc2)NC1=O (centres unmarked) [BC19375] |  |  | < 0.1 | > 10
30 | CCC1Oc2c(cc(Br)cc2S(=O)(=O)NCCc2ccc(OC(F)(F)F)cc2)NC1=O (centres unmarked) [BC19376] |  |  | 1 to 10 | > 10
31 | CCC1Oc2c(cc(Br)cc2S(=O)(=O)NCc2ccc(C(F)(F)F)cc2)NC1=O (centres unmarked) [BC19377] |  |  | < 0.1 | > 10
32 | CCC1Oc2c(cc(Br)cc2S(=O)(=O)NC2CCC(O)CC2)NC1=O (centres unmarked) [BC19378] |  |  | > 10 | > 10
33 | CCC1Oc2c(cc(Br)cc2S(=O)(=O)NC2CCC(C(C)(C)C)CC2)NC1=O (centres unmarked) [BC19379] |  |  | > 10 | > 10
34 | CC(C)(C)C1CCC(NS(=O)(=O)c2cc(Br)cc3c2OCC(=O)N3)CC1 (centres unmarked) [BC19380] |  |  | > 10 | > 10
